From patent publication US10188108B2, “Fused bicyclic heterocycle derivatives as pesticides” (BAYER CROPSCIENCE AKTIENGESELLSCHAFT, priority 2015, dated 2019)

Assays:
[1] = log P by HPLC on a reversed-phase column (C 18), EEC Directive 79/831 Annex V.A8; format: physicochemical; details: 55° C.; for LOGP_HCOOH: acidic range, pH 2.7, 0.1% aqueous formic acid/acetonitrile; for LOGP_NEUTRAL: neutral range, pH 7.8, 0.001 molar aqueous ammonium hydrogencarbonate/acetonitrile
Experimental: The log P values are measured according to EEC Directive 79/831 Annex V.A8 by HPLC (high-performance liquid chromatography) on a reversed-phase column (C 18). Temperature: 55° C.
The LC-MS determination in the acidic range is effected at pH 2.7 using 0.1% aqueous formic acid and acetonitrile (contains 0.1% formic acid) as eluents; linear gradient from 10% acetonitrile to 95% acetonitrile. Called log P (HCOOH) in the table.
LC-MS determination in the neutral range is effected at pH 7.8 with 0.001 molar aqueous ammonium hydrogencarbonate solution and acetonitrile as eluents; linear gradient from 10% acetonitrile to 95% acetonitrile. Called log P (neutral) in the table.
Calibration is carried out using unbranched alkan-2-ones (having 3 to 16 carbon atoms) with known log P values (log P values determined on the basis of the retention times by linear interpolation between two successive alkanones).

Lucilia cuprina = Lucilia cuprina test; format: in vivo; details: 100 ppm, after 2 days, L1 larvae
Experimental: • Solvent: dimethyl sulphoxide To produce a suitable preparation of active compound, 10 mg of active compound are mixed with 0.5 ml of dimethyl sulphoxide, and the concentrate is diluted with water to the desired concentration. About 20 L1 larvae of the Australian sheep blowfly (Lucilia cuprina) are transferred into a test vessel containing minced horsemeat and the active compound preparation of the desired concentration. After 2 days, the kill in % is determined. 100% means that all the larvae have been killed; 0% means that no larvae have been killed.

Phaedon cochleariae = Phaedon cochleariae - spray test; format: in vivo; details: 500 g/ha, after 7 days, larvae on Chinese cabbage leaf discs
Experimental: (§1) • Solvent: 78.0 parts by weight of acetone • 1.5 parts by weight of dimethylformamide • Emulsifier: alkylaryl polyglycol ether
(§2) To produce a suitable preparation of active compound, 1 part by weight of active compound is dissolved using the stated parts by weight of solvent and made up with water containing an emulsifier concentration of 1000 ppm until the desired concentration is attained. To produce further test concentrations, the preparation is diluted with emulsifier-containing water.
After 7 days, the efficacy in % is determined. 100% means that all the beetle larvae have been killed; 0% means that no beetle larvae have been killed.

Spodoptera frugiperda = Spodoptera frugiperda - spray test; format: in vivo; details: 500 g/ha, after 7 days, caterpillars on maize leaf discs
Experimental: as §1, §2
Leaf discs of maize (Zea mays) are sprayed with an active compound preparation of the desired concentration and, after drying, populated with caterpillars of the armyworm (Spodoptera frugiperda).
After 7 days, the efficacy in % is determined. 100% means that all the caterpillars have been killed; 0% means that no caterpillars have been killed.

Myzus persicae [2] = test: Myzus persicae spray test (bell pepper plants); format: in vivo; details: 100 ppm, after 6 days
Experimental: • Solvent: 14 parts by weight of dimethylformamide • Emulsifier: alkylaryl polyglycol ether
as §2, with “water. If the addition of ammonium salts or/and penetrants is required, these are each added in a concentration of 1000 ppm to the formulation solution.” for “water.”
Bell pepper plants (Capsicum annuum) severely infested with the green peach aphid (Myzus persicae) are treated by spraying with the active compound preparation in the desired concentration.
After 6 days, the kill in % is determined. 100% means that all of the aphids have been killed; 0% means that none of the aphids have been killed.

Ctenocephalides felis [3] = test: Ctenocephalides felis - in vitro contact tests with adult cat fleas; format: in vivo; details: 5 μg/cm^2 (=500 g/ha), after 48 h, adult cat fleas dead or moribund
Experimental: (§3) For the coating of the test tubes, 9 mg of active compound are first dissolved in 1 ml of acetone p.a. and then diluted to the desired concentration with acetone p.a. 250 μl of the solution are distributed homogeneously on the inner walls and the base of a 25 ml test tube by turning and rocking on an orbital shaker (rocking rotation at 30 rpm for 2 h). With 900 ppm active compound solution and internal surface 44.7 cm^2, given homogeneous distribution, an area-based dose of 5 μg/cm^2 is achieved.
After the solvent has evaporated off, the tubes are populated with 5-10 adult cat fleas (Ctenocephalides felis), sealed with a perforated plastic lid and incubated in a horizontal position at room temperature and ambient humidity. After 48 h, efficacy is determined. To this end, the test tubes are stood upright and the fleas are knocked to the base of the tube. Fleas which remain motionless at the base or move in an uncoordinated manner are considered to be dead or moribund.
100% efficacy means that all the fleas were dead or moribund. 0% efficacy means that no fleas were harmed.

Boophilus microplus = Boophilus microplus - injection test; format: in vivo; details: 20 μg/animal injected, engorged adult female cattle ticks, laying of fertile eggs after 7 days
Experimental: • Solvent: dimethyl sulphoxide
To produce a suitable preparation of active compound, 10 mg of active compound are mixed with 0.5 ml of solvent and the concentrate is diluted with solvent to the desired concentration.
1 μl of the active compound solution is injected into the abdomen of 5 engorged adult female cattle ticks (Boophilus microplus). The animals are transferred into dishes and kept in a climate-controlled room.
Efficacy is assessed after 7 days by laying of fertile eggs. Eggs which are not visibly fertile are stored in a climate-controlled cabinet until the larvae hatch after about 42 days. An efficacy of 100% means that none of the ticks has laid any fertile eggs; 0% means that all the eggs are fertile.

Ctenocephalides felis [4] = test: Ctenocephalides felis - oral test; format: in vivo; details: 100 ppm in citrated cattle blood, after 2 days, adult cat fleas
Experimental: • Solvent: dimethyl sulphoxide To produce a suitable preparation of active compound, 10 mg of active compound are mixed with 0.5 ml of dimethyl sulphoxide. Dilution with citrated cattle blood gives the desired concentration. About 20 unfed adult cat fleas (Ctenocephalides felis) are placed into a chamber which is closed at the top and bottom with gauze. A metal cylinder whose bottom end is closed with parafilm is placed onto the chamber. The cylinder contains the blood/active compound preparation, which can be imbibed by the fleas through the parafilm membrane. After 2 days, the kill in % is determined. 100% means that all of the fleas have been killed; 0% means that none of the fleas have been killed.

Musca domestica = Musca domestica test; format: in vivo; details: after 2 days, adult houseflies
Experimental: • Solvent: dimethyl sulphoxide To produce a suitable preparation of active compound, 10 mg of active compound are mixed with 0.5 ml of dimethyl sulphoxide, and the concentrate is diluted with water to the desired concentration. Vessels containing a sponge treated with sugar solution and the active compound preparation of the desired concentration are populated with 10 adult houseflies (Musca domestica). After 2 days, the kill in % is determined. 100% means that all of the flies have been killed; 0% means that none of the flies have been killed.

Rhipicephalus sanguineus = Rhipicephalus sanguineus - in vitro contact tests with adult brown dog ticks; format: in vivo; details: 5 μg/cm^2 (=500 g/ha), after 48 h, adult dog ticks dead or moribund
Experimental: as §3, with “p.a. and 20 then diluted” for “p.a. and then diluted”
After the solvent has evaporated off, the tubes are populated with 5-10 adult dog ticks (Rhipicephalus sanguineus), sealed with a perforated plastic lid and incubated in a horizontal position in the dark at room temperature and ambient humidity. After 48 h, efficacy is determined. To this end, the ticks are knocked to the base of the tube and incubated on a hotplate at 45-50° C. for not more than 5 min. Ticks which remain motionless on the base or move in such an uncoordinated manner that they are unable to deliberately avoid the heat by climbing upwards are considered to be dead or moribund.
An efficacy of 100% means that all the ticks were dead or moribund. 0% efficacy means that none of the ticks were harmed.

Myzus persicae [5] = test: Myzus persicae - spray test (Chinese cabbage leaf discs); format: in vivo; details: 500 g/ha, after 5-6 days
Experimental: • Solvent: 78 parts by weight of acetone • 1.5 parts by weight of dimethylformamide • Emulsifier: alkylaryl polyglycol ether
as §2
Discs of Chinese cabbage leaves (Brassica pekinensis) infested by all stages of the green peach aphid (Myzus persicae) are sprayed with an active compound preparation of the desired concentration.
After 5-6 days, the efficacy in % is determined. 100% means that all the aphids have been killed; 0% means that no aphids have been killed.

Meloidogyne incognita = Meloidogyne incognita test; format: in vivo; details: 20 ppm, after 14 days, formation of galls on lettuce roots
Experimental: • Solvent: 125.0 parts by weight of acetone To produce a suitable preparation of active compound, 1 part by weight of active compound is mixed with the stated amount of solvent and the concentrate is diluted with water to the desired concentration. Vessels are filled with sand, active compound solution, an egg/larvae suspension of the southern root-knot nematode (Meloidogyne incognita) and lettuce seeds. The lettuce seeds germinate and the plants develop. The galls develop on the roots. After 14 days, the nematicidal efficacy in % is determined by the formation of galls. 100% means that no galls were found; 0% means that the number of galls on the treated plants corresponds to the untreated control.

Haemonchus contortus = Haemonchus contortus test; format: in vivo; details: 20 ppm, after 5 days, larvae
Experimental: • Solvent: Dimethyl Sulphoxide To produce a suitable preparation of active compound, 10 mg of active compound are mixed with 0.5 ml of dimethyl sulphoxide and the concentrate is diluted with “Ringer's solution” to the desired concentration. Vessels containing the active compound preparation of the desired concentration are populated with about 40 larvae of the red stomach worm (Haemonchus contortus). After 5 days, the kill in % is determined. 100% means that all the larvae have been killed; 0% means that none of the larvae have been killed.

Tetranychus urticae = Tetranychus urticae - spray test, OP-resistant; format: in vivo; details: 500 g/ha, after 6 days, bean leaf discs
Experimental: as §1, §2
Discs of bean leaves (Phaseolus vulgaris) infested with all stages of the greenhouse red spider mite (Tetranychus urticae) are sprayed with an active compound preparation of the desired concentration.
After 6 days, the efficacy in % is determined. 100% means that all the spider mites have been killed; 0% means that no spider mites have been killed.

| LOGP_HCOOH [1] | LOGP_NEUTRAL [1] | Structure (SMILES) | efficacy (kill) (Lucilia cuprina) | efficacy (Phaedon cochleariae) | efficacy (Spodoptera frugiperda) | efficacy (kill) (Myzus persicae [2]) | efficacy (Ctenocephalides felis [3]) | efficacy (Boophilus microplus) | efficacy (kill) (Ctenocephalides felis [4]) | efficacy (kill) (Musca domestica; 4 ppm) | efficacy (Rhipicephalus sanguineus) | efficacy (Myzus persicae [5]) | nematicidal efficacy (Meloidogyne incognita) | efficacy (kill) (Haemonchus contortus) | efficacy (kill) (Musca domestica; 20 ppm) | efficacy (Tetranychus urticae) |
| --- | --- | --- | --- | --- | --- | --- | --- | --- | --- | --- | --- | --- | --- | --- | --- | --- |
| 2.70 | 2.64 | CCS(=O)(=O)c1c(-c2nc3cc(C(F)(F)F)ccc3n2C)nc2ccccn12 [Example I-10] | 100% | 100% | 100% | 100% | – | – | – | – | – | – | – | – | – | – |
| 3.29 | 3.25 | CC[S+]([O-])c1c(-c2nc3cc(C(F)(F)F)ncc3n2C)nc2cc(C(F)(F)F)ccn12 (stereo not drawn) [Example I-18] | 100% | 100% | 100% | – | 100% | 95% | 100% | 95% | – | – | – | – | – | – |
| 2.98 | – | CCS(=O)(=O)c1c(-c2nc3cc(C(F)(F)F)ccc3n2C)nc2ccc(C)cn12 [Example I-35] | – | – | 100% | – | 100% | – | – | – | 80% | 90% | – | – | – | – |
| 3.43 | 3.39 | CCSc1c(-c2nc3cc(C(F)(F)F)cnc3n2C)nc2ccccn12 [Example I-52] | – | 100% | – | – | – | – | – | – | – | – | 100% | – | – | – |
| 2.58 | 2.49 | CCS(=O)(=O)c1c(-c2nc3cc(C(F)(F)F)cnc3n2C)nc2ccccn12 [Example I-59] | 100% | 100% | 100% | – | 100% | – | 80% | – | 100% | 90% | – | 80% | 80% | 90% |
